# Assay: 4-MU partitioning assay, backward transfer partitioning (backward extraction; BE), effect of aqueous phase surfactants on 4-MU containment
# Assay type: physicochemical
# Conditions: surfactant at 1.5 times its CMC; oil phase 5 cSt silicone oil with 0.1% w/v Triton X-15; lower signal = better 4-MU retention
# Description: The efficacy of different surfactants (detergents) in containing 4-MU (or derivatives) within an aqueous phase may, for example, be evaluated using a partitioning assay. Parameters that may be varied in the assay for evaluation of surfactants in aqueous containment of 4-MU (or derivatives) include, but are not limited to, the pH of the aqueous phase solution, and the critical micelle concentration of the surfactant.
# The assay format includes forward transfer partitioning (forward extraction; FE) of 4-MU from an aqueous phase to an oil phase and backward transfer partitioning (backward extraction; BE) of 4-MU from an oil phase to an aqueous phase. The assay is performed in 96-well microtiter substrates; clear 96-well substrates (e.g., Costar 3631) for evaluation of forward transfer partitioning with bottom probe fluorescence detection and solid black 96-well substrates (e.g., Costar 3915) for evaluation of backward transfer partitioning with top probe fluorescence detection. A BioTek Synergy HT instrument with 3 mm top probe and 5 mm bottom probe, may, for example, be used for fluorescence measurements. […]
substance,measurement,value
ANAPOE ®-20 (Tween ® 20) [AS17],"relative fluorescence reading, backward transfer partitioning (BE) of 4-MU","43,000-44,000 RFU"
